ChEMBL document CHEMBL3885861, “Open TG-GATES”

Species: Rattus norvegicus
Test: Open TG-GATES - Regimen: Single
Type: toxicity, organism-based, Sprague-Dawley
Design: regimen Single, gender Male, age 6 weeks
Conditions: in vivo, po, 80 mg/kg, route gavage, dose level Middle; for APTT / Bas / Eos / Fbg / Hb / Ht / Lym / MCH / MCHC / MCV / Mono / Neu / PT / Plat / RBC / Ret / WBC: tissue Blood; for KIDNEY_L / KIDNEY_R / KIDNEY_TOTAL: tissue Kidney; for LIVER: tissue Liver; for A/G / ALP / ALT / AST / BUN / CRE / Ca / Cl / DBIL / GLC / IP / K / LDH / Na / PL / RALB / TBIL / TC / TG / TP / gamma-GTP: tissue Plasma

CCSCC[C@H](N)C(=O)O [ETHIONINE]
TERMINAL_BW (3 h): 217.5 g
APTT (3 h): 18.6 s
Bas (3 h): 0%
Eos (3 h): 1%
Fbg (3 h): 209 mg/dL
Hb (3 h): 13.4 g/dL
Ht (3 h): 39.6%
Lym (3 h): 77.8%
MCH (3 h): 21.3 pg
MCHC (3 h): 33.9%
MCV (3 h): 62.7 fL
Mono (3 h): 2.8%
Neu (3 h): 17.6%
PT (3 h): 12.4 s
Plat (3 h): 119.9 x10_4/uL
RBC (3 h): 631.4 x10_4/ul
Ret (3 h): 6.8%
WBC (3 h): 71.3 x10_2/uL
KIDNEY_L (3 h): 1 g
KIDNEY_R (3 h): 1 g
KIDNEY_TOTAL (3 h): 1.9 g
LIVER (3 h): 9.9 g
A/G (3 h): 1.6
ALP (3 h): 765.4 IU/L
ALT (3 h): 33 IU/L
AST (3 h): 62.8 IU/L
BUN (3 h): 10.4 mg/dL
CRE (3 h): 0.4 mg/dL
Ca (3 h): 10.3 mg/dL
Cl (3 h): 101.4 meq/L
DBIL (3 h): 0.052 mg/dL
GLC (3 h): 207.4 mg/dL
IP (3 h): 10 mg/dL
K (3 h): 3.8 meq/L
LDH (3 h): 171.6 IU/L
Na (3 h): 140.4 meq/L
PL (3 h): 120.8 mg/dL
RALB (3 h): 3.3 g/dL
TBIL (3 h): 0.1 mg/dL
TC (3 h): 68.2 mg/dL
TG (3 h): 43.8 mg/dL
TP (3 h): 5.4 g/dL
gamma-GTP (3 h): 1.4 IU/L
TERMINAL_BW (6 h): 212.9 g
APTT (6 h): 18.2 s
Bas (6 h): 0%
Eos (6 h): 1%
Fbg (6 h): 215 mg/dL
Hb (6 h): 13.5 g/dL
Ht (6 h): 39.6%
Lym (6 h): 79.4%
MCH (6 h): 21.4 pg
MCHC (6 h): 34.1%
MCV (6 h): 62.7 fL
Mono (6 h): 2.2%
Neu (6 h): 16.6%
PT (6 h): 12.9 s
Plat (6 h): 116.1 x10_4/uL
RBC (6 h): 632 x10_4/ul
Ret (6 h): 6.3%
WBC (6 h): 88 x10_2/uL
KIDNEY_L (6 h): 1 g
KIDNEY_R (6 h): 1 g
KIDNEY_TOTAL (6 h): 1.9 g
LIVER (6 h): 9.2 g
A/G (6 h): 1.7
ALP (6 h): 877.2 IU/L
ALT (6 h): 35.6 IU/L
AST (6 h): 65.2 IU/L
BUN (6 h): 10.6 mg/dL
CRE (6 h): 0.3 mg/dL
Ca (6 h): 10.3 mg/dL
Cl (6 h): 102.6 meq/L
DBIL (6 h): 0.058 mg/dL
GLC (6 h): 207.4 mg/dL
IP (6 h): 9.4 mg/dL
K (6 h): 3.7 meq/L
LDH (6 h): 191.2 IU/L
Na (6 h): 140.4 meq/L
PL (6 h): 116.6 mg/dL
RALB (6 h): 3.3 g/dL
TBIL (6 h): 0.1 mg/dL
TC (6 h): 58.8 mg/dL
TG (6 h): 54.2 mg/dL
TP (6 h): 5.4 g/dL
gamma-GTP (6 h): 1 IU/L
TERMINAL_BW (9 h): 215.1 g
APTT (9 h): 19.5 s
Bas (9 h): 0%
Eos (9 h): 1%
Fbg (9 h): 205.4 mg/dL
Hb (9 h): 13.3 g/dL
Ht (9 h): 39%
Lym (9 h): 76%
MCH (9 h): 21 pg
MCHC (9 h): 34.1%
MCV (9 h): 61.4 fL
Mono (9 h): 2.4%
Neu (9 h): 19.4%
PT (9 h): 13.1 s
Plat (9 h): 117 x10_4/uL
RBC (9 h): 634.6 x10_4/ul
Ret (9 h): 6.7%
WBC (9 h): 77.6 x10_2/uL
KIDNEY_L (9 h): 1 g
KIDNEY_R (9 h): 1 g
KIDNEY_TOTAL (9 h): 1.9 g
LIVER (9 h): 9.1 g
A/G (9 h): 1.5
ALP (9 h): 727 IU/L
ALT (9 h): 28.8 IU/L
AST (9 h): 54.8 IU/L
BUN (9 h): 10.6 mg/dL
CRE (9 h): 0.3 mg/dL
Ca (9 h): 10.4 mg/dL
Cl (9 h): 101.4 meq/L
DBIL (9 h): 0.086 mg/dL
GLC (9 h): 197.6 mg/dL
IP (9 h): 9.7 mg/dL
K (9 h): 3.6 meq/L
LDH (9 h): 174.2 IU/L
Na (9 h): 140.6 meq/L
PL (9 h): 133 mg/dL
RALB (9 h): 3.4 g/dL
TBIL (9 h): 0.1 mg/dL
TC (9 h): 70.4 mg/dL
TG (9 h): 95.6 mg/dL
TP (9 h): 5.6 g/dL
gamma-GTP (9 h): 1.4 IU/L
TERMINAL_BW (24 h): 227.7 g
APTT (24 h): 20.7 s
Bas (24 h): 0%
Eos (24 h): 1%
Fbg (24 h): 224 mg/dL
Hb (24 h): 13.7 g/dL
Ht (24 h): 40.7%
Lym (24 h): 79.8%
MCH (24 h): 21.1 pg
MCHC (24 h): 33.7%
MCV (24 h): 62.7 fL
Mono (24 h): 3.6%
Neu (24 h): 14%
PT (24 h): 13.6 s
Plat (24 h): 122.5 x10_4/uL
RBC (24 h): 649.8 x10_4/ul
Ret (24 h): 6.5%
WBC (24 h): 97.9 x10_2/uL
KIDNEY_L (24 h): 1 g
KIDNEY_R (24 h): 1 g
KIDNEY_TOTAL (24 h): 2.1 g
LIVER (24 h): 11.3 g
A/G (24 h): 1.5
ALP (24 h): 1010.2 IU/L
ALT (24 h): 37 IU/L
AST (24 h): 69 IU/L
BUN (24 h): 13.4 mg/dL
CRE (24 h): 0.4 mg/dL
Ca (24 h): 10.8 mg/dL
Cl (24 h): 101.2 meq/L
DBIL (24 h): 0.09 mg/dL
GLC (24 h): 215.8 mg/dL
IP (24 h): 8.8 mg/dL
K (24 h): 3.8 meq/L
LDH (24 h): 210.6 IU/L
Na (24 h): 139.4 meq/L
PL (24 h): 129.6 mg/dL
RALB (24 h): 3.5 g/dL
TBIL (24 h): 0.1 mg/dL
TC (24 h): 57.6 mg/dL
TG (24 h): 98.2 mg/dL
TP (24 h): 5.8 g/dL
gamma-GTP (24 h): 1 IU/L
